This passage reports Ki results from US9365583B2, “Substituted pyrazoles and uses thereof” (Genentech, Inc., priority 2013, dated 2016).

Bounds are passed on as bounds.

For this test, the target named is T1, N-terminally GST-tagged DLK (catalytic domain amino acid 1-520) (Homo sapiens, UniProt Q12852).
T1 construct: N-terminally GST-tagged DLK (catalytic domain amino acid 1-520); purchased Carna Bioscience
T1 sequence (Q12852 1-520): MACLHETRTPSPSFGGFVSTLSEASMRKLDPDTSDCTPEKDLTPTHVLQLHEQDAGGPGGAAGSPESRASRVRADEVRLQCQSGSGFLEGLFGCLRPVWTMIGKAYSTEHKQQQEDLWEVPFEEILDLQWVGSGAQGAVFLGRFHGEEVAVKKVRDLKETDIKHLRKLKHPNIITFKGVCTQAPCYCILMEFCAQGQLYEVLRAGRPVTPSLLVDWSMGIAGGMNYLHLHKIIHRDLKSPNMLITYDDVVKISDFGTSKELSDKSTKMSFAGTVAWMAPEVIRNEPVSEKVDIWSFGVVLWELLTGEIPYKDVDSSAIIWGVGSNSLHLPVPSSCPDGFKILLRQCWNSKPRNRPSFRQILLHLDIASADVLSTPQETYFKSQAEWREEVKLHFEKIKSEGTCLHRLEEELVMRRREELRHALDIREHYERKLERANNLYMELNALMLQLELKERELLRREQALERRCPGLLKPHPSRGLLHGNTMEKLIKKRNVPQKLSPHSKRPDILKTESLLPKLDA
Briefly: DLK TR-FRET inhibition assay. The note with it: 5 nM GST-DLK, 40 nM HIS-MKK4 K131M substrate, 30 μM ATP, 60 minutes at ambient temperature. It is filed as biochemical. The protocol:
DLK TR-FRET inhibition assay: DLK kinase reactions (20 μL) containing 5 nM N-terminally GST-tagged DLK (catalytic domain amino acid 1-520) (Carna Bioscience), 40 nM N-terminally HIS-tagged MKK4 K131M substrate, and 30 μM ATP in kinase reaction buffer (50 mM HEPES, pH 7.5, 0.01% Triton X-100, 0.01% Bovine γ-Globulins, 2 mM DTT, 10 mM MgCl2 and 1 mM EGTA), and testing compound 1:3 serial diluted starting at 20 uM were incubated at ambient temperature for 60 minutes in 384 well OptiPlate (Perkin Elmer). To quench kinase reactions and detect phosphorylated MKK4, 15 μL of TR-FRET antibody mixture containing 2 nM anti-phosphorylated MKK4 labeled with Europium cryptate (Cisbio) and 23 nM anti-HIS labeled with D2 (Cisbio) in detection buffer (25 mM Tris pH 7.5, 100 mM NaCl, 100 mM EDTA, 0.01% Tween-20, and 200 mM KF) was added to the reaction mixture. The detection mixture was incubated for 3 hours at ambient temperature and the TR-FRET was detected with an EnVision multilabel plate reader (Perkin-Elmer) using the LANCE/DELFIA Dual Enh label from Perkin-Elmer (excitation filter: UV2 (TRF) 320 and emission filters: APC 665 and Europium 615).
(In general: In TR-FRET formats the signal depends on donor and acceptor labels being close together.)
Usually Ki stands for the equilibrium dissociation constant of an inhibitor or competing ligand from its target. Consider `CC(C)n1nc(-c2cnc(N)c(C(F)(F)F)c2)cc1[C@H]1[C@@H]2C[C@@H](N3CC(F)C3)C[C@@H]21` [compound 37, 5-(5-((1R,3s,5S,6r)-3-(3-fluoro-azetidin-1-yl)bicyclo[3.1.0]hexan-6-yl)-1-isopropyl-1H-pyrazol-3-yl)-3-(trifluoromethyl)pyridin-2-amine], for which the inhibition constant Ki came to 2.37 nM.
The figure for `Nc1ncc(-c2cc([C@H]3[C@@H]4C[C@@H](N5CCOCC5)C[C@@H]43)n(CC3CCC3)n2)cc1OC(F)F` [compound 128, 5-(1-(cyclobutylmethyl)-5-((1R, 3s,5S,6r)-3-morpholinobicyclo [3.1.0]hexan-6-yl)-1H-pyrazol-3-yl)-3-(difluoromethoxy)pyridin-2-amine] is 5.06 nM; for `CC(C)n1nc(-c2cnc(N)c(C(F)(F)F)c2)cc1[C@H]1[C@@H]2CC3(C[C@@H]21)CN(C)C(=O)CO3` (stereo partly drawn) [compound 229, (1R,5S,6r)-6-(3-(6-amino-5-(tri-fluoromethyl)pyridin-3-yl)-1-isopropyl-1H-pyrazol-5-yl)-4′-methylspiro[bicyclo[3.1.0]hexane-3,2′-morpholin]-5′-one] it is 3.9 nM; for `CC(C)n1nc(-c2cnc(N)c(OC(F)(F)F)c2)cc1[C@@H]1[C@@H]2C[C@H](N3CCOCC3)C[C@@H]21` [compound 125, 5-(1-isopropyl-5-((1R,3r,5S,6s)-3-morpholinobicyclo[3.1.0]hexan-6-yl)-1H-pyrazol-3-yl)-3-(trifluoro-methoxy)pyridin-2-amine] it is greater than 1600 nM.
`CC(C)n1nc(-c2cnc(N)c(C(F)(F)F)c2)cc1[C@H]1[C@@H]2C[C@H](N3CCS(=O)(=O)CC3)C[C@@H]21` [compound 10, 4-((1R,3r,5S,6r)-6-(3-(6-amino-5-(trifluoromethyl)pyridin-3-yl)-1-isopropyl-1H-pyrazol-5-yl)bicyclo[3.1.0]hexan-3-yl)thio-morpholine 1,1-dioxide] registered a Ki of 3.28 nM.
Next, `CC(C)n1nc(-c2cnc(N)c(OC(F)(F)F)c2)cc1[C@H]1[C@@H]2C[C@H](N3CCO[C@@H](C)C3)C[C@@H]21` [compound 109, 5-(1-isopropyl-5-((1R,3r,5S,6S)-3-((S)-2-methylmorpholino)bicyclo[3.1.0]hexan-6-yl)-1H-pyrazol-3-yl)-3-(trifluoromethoxy) pyridin-2-amine]: 1.59 nM.
On to `CC(C)n1nc(-c2cnc(N)c(CC(F)(F)F)c2)cc1[C@H]1[C@@H]2C[C@@H](N3CCOCC3)C[C@@H]21` [compound 281, 5-(1-isopropyl-5-((1R,3s,5S,6r)-3-morpholinobicyclo[3.1.0]hexan-6-yl)-1H-pyrazol-3-yl)-3-(2,2,2-trifluoroethyl)pyridin-2-amine], for which the Ki was found to be 18.4 nM.
Next, `CC(C)n1nc(-c2cnc(N)c(C(F)(F)F)c2)cc1[C@H]1[C@@H]2C[C@@H](N3CCN(CC(F)F)CC3)C[C@@H]21` [compound 266]: 1.1 nM.
Compound `CC(C)n1nc(-c2cnc(N)c(OC(F)F)c2)cc1[C@H]1[C@@H]2C[C@H](N3CCN(C)C[C@@H]3C)C[C@@H]21` [compound 238, 3-(difluoromethoxy)-5-(5-((1R,3r,5S,6S)-3-((S)-2,4-dimethyl-piperazin-1-yl)bicyclo[3.1.0]hexan-6-yl)-1-isopropyl-1H-pyrazol-3-yl)pyridin-2-amine] came in with a Ki of 1.6 nM.
Next, `CC(C)n1nc(-c2cnc(N)c(OC(F)F)c2)cc1[C@H]1[C@@H]2C[C@H](N3CCOC[C@@H]3C)C[C@@H]21` [compound 80, 3-(difluoromethoxy)-5-(1-isopropyl-5-((1R,3r,5S,6S)-3-((S)-3-methylmorpholino)bicyclo[3.1.0]hexan-6-yl)-1H-pyrazol-3-yl) pyridin-2-amine]: 0.6 nM.
Next, `CC(C)n1nc(-c2cnc(N)c(OC(F)(F)F)c2)cc1[C@H]1[C@@H]2C[C@@H](N3CC4(CCCO4)C3)C[C@@H]21` [compound 221, 5-(5-((1R,3s,5S,6r)-3-(5-oxa-2-azaspiro[3.4]octan-2-yl)bicyclo [3.1.0]hexan-6-yl)-1-isopropyl-1H-pyrazol-3-yl)-3-(trifluoromethoxy) pyridin-2-amine]: 2 nM; `Nc1ncc(-c2cc([C@H]3[C@@H]4C[C@@H](N5CCCOCC5)C[C@@H]43)n(CC(F)F)n2)cc1OC(F)F` [compound 232, 5-(5-((1R,3s,5S,6r)-3-(1,4-oxazepan-4-yl)bicyclo[3.1.0]hexan-6-yl)-1-(2,2-difluoroethyl)-1H-pyrazol-3-yl)-3-(difluoromethoxy) pyridin-2-amine]: 1.1 nM; `CO[C@@H]1CCN([C@H]2C[C@@H]3[C@H](C2)[C@H]3c2cc(-c3cnc(N)c(OC(F)(F)F)c3)nn2C(C)C)C1` [compound 22, 5-(1-isopropyl-5-((1R,3r,5S,6R)-3-((R)-3-methoxypyrrolidin-1-yl)bicyclo[3.1.0]hexan-6-yl)-1H-pyrazol-3-yl)-3-(trifluoro-methoxy)pyridin-2-amine]: 1.57 nM.
The figure for `CC(C)n1nc(-c2cnc(N)c(C(F)(F)F)c2)cc1[C@H]1[C@@H]2C[C@H](N3CCN(C)C4(COC4)C3)C[C@@H]21` [compound 179, 5-(1-isopropyl-5-((1R,3r,5S,6r)-3-(5-methyl-2-oxa-5,8-diazaspiro [3.5]nonan-8-yl)bicyclo[3.1.0]hexan-6-yl)-1H-pyrazol-3-yl)-3-(trifluoromethyl)pyridin-2-amine] is 4.3 nM; for `Nc1ncc(-c2cc([C@H]3[C@@H]4C[C@H](N5CCOCC5)C[C@@H]43)n(CC(F)F)n2)cc1OC(F)(F)F` [compound 93, 5-(1-(2,2-difluoroethyl)-5-((1R,3r,5S,6r)-3-morpholinobicyclo [3.1.0]hexan-6-yl)-1H-pyrazol-3-yl)-3-(trifluoromethoxy)pyridin-2-amine] it is 1.22 nM.
`CC(C)n1nc(-c2cnc(N)c(C(F)(F)F)c2)cc1[C@H]1[C@@H]2C[C@H](N3CCC3)C[C@@H]21` [compound 30, 5-(5-((1R,3r,5S,6r)-3-(azetidin-1-yl)bicyclo[3.1.0]hexan-6-yl)-1-isopropyl-1H-pyrazol-3-yl)-3-(trifluoromethyl)pyridin-2-amine] came in with a Ki of 3.59 nM.
Next, `CC(C)n1nc(-c2cnc(N)c(C(F)(F)F)c2)cc1[C@H]1[C@@H]2C[C@H](N3C[C@H]4C[C@@H]3CO4)C[C@@H]21` [compound 55, 5-(5-((1R,3r,5S,6R)-3-((1R,4R)-2-oxa-5-azabicyclo[2.2.1]heptan-5-yl)bicyclo[3.1.0]hexan-6-yl)-1-isopropyl-1H-pyrazol-3-yl)-3-(trifluoromethyl)pyridin-2-amine]: 5.4 nM.
Next, `CC(C)n1nc(-c2cnc(N)c(OC(F)(F)F)c2)cc1[C@H]1[C@@H]2C[C@@H](N3C[C@@H]4C[C@H]3CO4)C[C@@H]21` [compound 164, 5-(5-((1R,3s,5S,6S)-3-((1S,4S)-2-oxa-5-azabicyclo[2.2.1]heptan-5-yl)bicyclo[3.1.0]hexan-6-yl)-1-isopropyl-1H-pyrazol-3-yl)-3-(trifluoromethoxy)pyridin-2-amine]: 3.3 nM; `CO[C@@H]1CCN([C@H]2C[C@@H]3[C@H](C2)[C@H]3c2cc(-c3cnc(N)c(OC(F)F)c3)nn2C(C)C)C1` [compound 186, 3-(difluoromethoxy)-5-(1-isopropyl-5-((1R,3r,5S,6R)-3-((R)-3-methoxypyrrolidin-1-yl)bicyclo [3.1.0]hexan-6-yl)-1H-pyrazol-3-yl)pyridin-2-amine]: 1.6 nM.
Next, `CC(C)n1nc(-c2cnc(N)c(C(F)(F)F)c2)cc1[C@H]1[C@@H]2C[C@@H](N3C[C@@H]4C[C@H]3CO4)C[C@@H]21` [compound 167, 5-(5-((1R,3s,5S,6S)-3-((1S,4S)-2-oxa-5-azabicyclo[2.2.1]heptan-5-yl)bicyclo[3.1.0]hexan-6-yl)-1-isopropyl-1H-pyrazol-3-yl)-3-(trifluoromethyl)pyridin-2-amine]: 1.4 nM.
`CC(C)n1nc(-c2cnc(N)c(OC(F)F)c2)cc1C1[C@H]2CC(N3CCOCC(F)C3)C[C@@H]12` (single isomer, unassigned) [compound 175] gave an inhibitory constant (Ki) of 5.5 nM.
Next, `CC(C)n1nc(-c2cnc(N)c(C(F)(F)F)c2)cc1[C@H]1[C@@H]2C[C@@H](n3ccnc3)C[C@@H]21` [compound 114, 5-(5-((1R,3s,5S,6r)-3-(1H-imidazol-1-yl)bicyclo[3.1.0]hexan-6-yl)-1-isopropyl-1H-pyrazol-3-yl)-3-(trifluoromethyl)pyridin-2-amine]: 15.1 nM.
